Earlier results in US12296036B2, “Method for dyeing keratinous material, including the application of an organosilicon compound, a dyeing compound, a sealing reagent and an alkaline pre-treatment agent” (HENKEL AG & CO. KGAA, priority 2021, dated 2025).

SMILES	solubility in water (25° C.)	further results
O=S(=O)([O-])c1ccc(N=Nc2c(O)ccc3ccccc23)cc1.[Na+] [Acid Orange 7, sodium salt of 4-[(2-hydroxy-1-naphthyl)azo]benzene sulphonate]	more than 7 g/L	–
Nc1cc(S(=O)(=O)[O-])cc2cc(S(=O)(=O)[O-])c(N=Nc3ccccc3)c(O)c12.[Na+].[Na+] [Acid Red 33, disodium salt of 5-amino-4-hydroxy-3-(phenylazo)-naphthalene-2,7-disulfonate]	2500 µg/mL	–
O=C([O-])c1c(Cl)c(Cl)c(Cl)c(Cl)c1-c1c2cc(Br)c(=O)c(Br)c-2oc2c(Br)c([O-])c(Br)cc12.[Na+].[Na+] [Acid Red 92, disodium salt of 3,4,5,6-tetrachloro-2-(1,4,5,8-tetrabromo-6-hydroxy-3-oxanthene-9-yl) benzoic acid]	greater than 10 g/L	–
CCN(Cc1cccc(S(=O)(=O)[O-])c1)c1ccc(C(=C2C=CC(=[N+](CC)Cc3cccc(S(=O)(=O)[O-])c3)C=C2)c2ccccc2S(=O)(=O)[O-])cc1.[Na+].[Na+] [Acid Blue 9]	–	water solubility (25° C.): more than 20 wt. %
O=C([O-])C1=NN(c2ccc(S(=O)(=O)[O-])cc2)C(=O)C1N=Nc1ccc(S(=O)(=O)[O-])cc1.[Na+].[Na+].[Na+] (centres unmarked) [Acid Yellow 23, trisodium salt of 4,5-dihydro-5-oxo-1-(4-sulfophenyl)-4-((4-sulfophenyl)azo)-1H-pyrazole-3-carboxylic acid]	–	solubility in water (in words) (in water at 25° C.): readily soluble
